Reference: patent US20260053764A1, “COMPOSITION FOR PREVENTING DETERIORATION IN COGNITIVE FUNCTION AND/OR IMPROVING COGNITIVE FUNCTION” (PHARMA FOODS INTERNATIONAL CO., LTD., priority 2020, published 2026)

Tested on: IGF-1 (insulin-like growth factor-1)
Experiment: Blood test, IGF-1 concentration in blood
Type: in vivo, human
Conditions: 200 mg ingestion test
From the text: While there are still many unclear points regarding the biochemical mechanism regarding reduction in cognitive function, the IGF-1 (insulin-like growth factor-1) level in blood is known to be reduced by aging. […] In one embodiment of the present disclosure, the composition of the present disclosure can be a composition for suppressing reduction in cognitive function and/or improving the cognitive function through elevation of the IGF-1 concentration in blood.
Among the 120 subjects in Example 1, a total of six blood tests were carried out to the total of 60 subjects who participated in test, wherein blood tests were carried out upon screening, before starting test food ingestion, after four weeks of ingestion, after eight weeks of ingestion, after twelve weeks of ingestion and four weeks after ending ingestion, as shown with ● in the test schedule in Table 1.

## NCCCC(=O)O [GABA, γ-aminobutyric acid]
blood, before ingestion, mean ± SD
  IGF-1: 71.0 ± 21.5 ng/mL
vs. before ingestion
  IGF-1 in the group that ingested GABA: tendency of increase
